Data as given in PubChem BioAssay (NCI).
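Briefly, cells in 96-well plates were exposed to five compound concentrations for 48 h, and endpoints were estimated by linear interpolation. Definition used: TGI = concentration required for complete inhibition of growth.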

Tests used:
Experiment in all cases: NCI anticancer screen, dose series, 48 h
RXF 393 renal = system: RXF 393 renal
SR leukemia = system: SR leukemia
HCT-116 colon = system: HCT-116 colon
MDA-MB-435 = system: MDA-MB-435
PC-3 prostate = system: PC-3 prostate
OVCAR-5 ovarian = system: OVCAR-5 ovarian
SF-539 CNS = system: SF-539 CNS
M14 melanoma = system: M14 melanoma
OVCAR-3 ovarian = system: OVCAR-3 ovarian
K-562 leukemia = system: K-562 leukemia
NCI-H23 lung = system: NCI-H23 lung
MDA-N = system: MDA-N
SW-620 colon = system: SW-620 colon
SNB-19 CNS = system: SNB-19 CNS
SF-295 CNS = system: SF-295 CNS
LOX IMVI melanoma = system: LOX IMVI melanoma
MOLT-4 leukemia = system: MOLT-4 leukemia
UACC-257 melanoma = system: UACC-257 melanoma
HL-60(TB) leukemia = system: HL-60(TB) leukemia
HCC-2998 colon = system: HCC-2998 colon

| Structure (SMILES) | TGI (RXF 393 renal) [µM] | TGI (SR leukemia) [µM] | TGI (HCT-116 colon) [µM] | TGI (MDA-MB-435) [µM] | TGI (PC-3 prostate) [µM] | TGI (OVCAR-5 ovarian) [µM] | TGI (SF-539 CNS) [µM] | TGI (M14 melanoma) [µM] | TGI (OVCAR-3 ovarian) [µM] | TGI (K-562 leukemia) [µM] | TGI (NCI-H23 lung) [µM] | TGI (MDA-N) [µM] | TGI (SW-620 colon) [µM] | TGI (SNB-19 CNS) [µM] | TGI (SF-295 CNS) [µM] | TGI (LOX IMVI melanoma) [µM] | TGI (MOLT-4 leukemia) [µM] | TGI (UACC-257 melanoma) [µM] | TGI (HL-60(TB) leukemia) [µM] | TGI (HCC-2998 colon) [µM] |
| --- | --- | --- | --- | --- | --- | --- | --- | --- | --- | --- | --- | --- | --- | --- | --- | --- | --- | --- | --- | --- |
| O=c1oc2c/c(=C\c3ccccn3)c(=O)c3cccc1c3-2 | 37.7 | > 100 | > 100 | > 100 | > 100 | > 100 | 57.4 | > 100 | 39.4 | > 100 | > 100 | > 100 | > 100 | > 100 | > 100 | > 100 | > 100 | > 100 | > 100 | > 100 |
| CCOC(=O)CC(=O)CSc1c(-c2ccccc2)c(=O)n(-c2ccccc2)c(=S)n1-c1ccccc1 | > 100 | > 100 | > 100 | > 100 | > 100 | > 100 | > 100 | > 100 | > 100 | > 100 | > 100 | > 100 | > 100 | > 100 | > 100 | > 100 | > 100 | > 100 | > 100 | > 100 |
| COc1ccc(C(=C2C(=O)N(c3ccccc3)C(=O)C2=C(C)C)c2ccc(OC)cc2)cc1 | 5.9 | > 100 | > 51.1 | 4.9 | > 40.1 | > 58.6 | > 24.2 | 13.5 | > 100 | > 100 | > 39.4 | 4.11 | > 100 | > 56.2 | > 49 | > 31.3 | > 39.7 | > 47.5 | 6.32 | > 52 |
| CC(C)NC(=O)OCc1c(COC(=O)NC(C)C)c(-c2cc[n+](COC(=O)C(C)C)cc2)n2c1CCC2 | 62.5 | > 63.3 | > 100 | > 100 | > 100 | > 100 | > 100 | > 100 | > 100 | > 100 | > 100 | > 100 | > 100 | > 100 | > 100 | > 100 | 99.2 | > 100 | > 77.7 | > 100 |
| CCc1ccc(/C=C/C(=O)C2CN(CC)CCC2(O)/C=C/c2ccc(CC)cc2)cc1 (stereo not given) | 8.43 | 3.99 | 3.25 | 4.07 | 12.4 | 9.69 | 6 | 7.11 | 3.3 | 8.94 | 11.5 | 10.6 | 4.4 | 23.3 | 8.9 | 2.9 | 6.03 | 19.3 | > 24.6 | 3.99 |
| COC(=O)C(/C(=N/N)C(=O)Nc1cccc(O)c1)c1nc2ccccc2[nH]c1=O (stereo not given) | > 100 | > 100 | > 100 | > 100 | > 100 | > 100 | > 100 | > 100 | > 100 | > 100 | > 100 | > 100 | > 100 | > 100 | > 100 | > 100 | > 100 | > 100 | > 100 | > 100 |
| COC(=O)N/N=C(/c1nc2ccc([N+](=O)[O-])cc2[nH]c1=O)C(O)c1ccc(OC)c(OC)c1 (stereo not given) | > 100 | 39 | > 100 | > 100 | > 100 | > 100 | > 100 | > 100 | > 100 | > 100 | > 100 | > 100 | > 100 | > 100 | > 100 | > 61.7 | > 100 | > 100 | > 100 | > 100 |
| C=C(CO)[C@H]1Oc2ccc(C(C)=O)cc2[C@@H]1O | > 100 | > 100 | > 100 | > 100 | > 100 | > 100 | > 100 | > 100 | > 100 | > 100 | > 100 | 56.5 | > 100 | > 100 | > 100 | > 100 | > 100 | > 100 | > 100 | > 100 |
| CSc1ccc(/C=C2\N=C(c3ccccc3)N(/N=C3\C(=O)Nc4ccccc43)C2=O)cc1 | > 100 | > 100 | > 100 | > 100 | > 100 | > 100 | > 100 | > 100 | > 100 | > 100 | > 100 | > 100 | > 100 | > 100 | > 100 | > 100 | > 100 | > 100 | > 100 | > 100 |
| COC(=O)[C@@H]1COC(C(C)(C)C)N1C(=O)C(c1ccccc1)c1ccccc1 (stereo not given in full) | 38.1 | 33.9 | > 100 | > 100 | > 100 | > 100 | > 100 | > 100 | > 100 | 70.4 | > 100 | 69.2 | > 100 | > 100 | > 100 | 52.1 | > 100 | > 100 | 83.4 | > 100 |
| O=C1CSC(c2ccccc2O)N1c1nc2cc3sc(N4C(=O)CSC4c4ccccc4O)nc3cc2s1 (stereo not given) | > 100 | > 100 | > 100 | > 100 | > 100 | > 100 | > 100 | > 100 | > 100 | > 100 | > 100 | > 100 | > 100 | > 100 | > 100 | > 100 | > 100 | > 77.5 | > 100 | > 100 |
| CC(C)(C)OC(=O)NC(CS(=O)(=O)O)C(=O)O (stereo not given) | > 100 | > 100 | > 100 | > 100 | > 100 | > 100 | > 100 | > 100 | > 100 | > 100 | > 100 | > 100 | > 100 | > 100 | > 100 | > 100 | > 100 | > 100 | > 100 | > 100 |
| CC1OC(OCC2OC(Oc3ccc(C4CC(=O)c5c(O)cc(O)cc5O4)cc3O)C(O)C(O)C2O)C(O)C(O)C1O (stereo not given) | > 100 | > 100 | > 100 | > 100 | > 100 | > 100 | > 100 | > 100 | > 100 | > 100 | > 100 | > 100 | > 100 | > 100 | > 100 | > 100 | > 100 | > 100 | > 100 | > 100 |
| O=C(O)c1nc2ccccc2nc1NCc1ccc(F)cc1 | > 100 | > 100 | > 100 | > 100 | > 100 | > 100 | > 100 | > 100 | > 100 | > 100 | > 100 | > 100 | > 100 | > 100 | > 100 | > 100 | > 100 | > 100 | > 100 | > 100 |
| CCCCCC(=Nc1n[nH]nc1C(N)=O)OCC | > 100 | > 100 | > 100 | > 100 | > 100 | > 100 | > 100 | > 100 | > 100 | > 100 | > 100 | > 100 | > 100 | > 100 | > 100 | > 100 | > 100 | > 100 | > 100 | > 100 |
| Cc1cccc(C)c1N1C(=O)C2c3[nH]c4ccccc4c3C3CCC(C(C)(C)C)CC3C2C1=O (stereo not given) | 26.3 | > 100 | 21.3 | > 100 | 20.6 | 55.9 | 37.5 | 32 | 30.3 | 32.7 | 39.8 | 24.4 | 21 | > 100 | 51.9 | 23.6 | > 100 | 37.5 | 35.5 | 14.9 |
| c1ccc2c3nnc(c2c1)SCCCSc1nnc(c2ccccc12)SCCCS3 | 94 | > 100 | > 100 | > 100 | > 100 | > 100 | 28.3 | > 100 | > 100 | > 100 | > 100 | > 100 | > 100 | > 100 | > 100 | > 100 | > 100 | > 100 | > 100 | > 100 |
